According to ChEMBL document CHEMBL1147876, “Synthesis of novel 3-amino-2-(4-chloro-2-mercaptobenzenesulfonyl)-guanidine derivatives as potential antitumor agents” (Eur J Med Chem, 2007):
Activity calls are given as the source filed them.

Columns and labels:
Format in all cases: functional, cell-based
MCF7 = test: Anticancer activity against human MCF7 cells at 100 uM
NCI-H460 = test: Anticancer activity against human NCI-H460 cells at 100 uM
SF-268 = test: Anticancer activity against human SF268 cells at 100 uM

Measured: Activity

C#CCN/C(=N/S(=O)(=O)c1cc(C(=O)Nc2ccccc2)c(Cl)cc1S)NN
inactive: all assays above

C#CCN/C(=N/S(=O)(=O)c1cc(C)c(Cl)cc1S)NN
inactive: all assays above

C=CCN/C(=N/S(=O)(=O)c1cc(C(=O)Nc2ccccc2)c(Cl)cc1SCC(N)=O)NN
inactive: all assays above

C#CCN/C(=N/S(=O)(=O)c1cc(C)c(Cl)cc1SCC#N)NN
inactive: all assays above

C#CCN/C(=N/S(=O)(=O)c1cc(C)c(Cl)cc1SCC(N)=O)NN
inactive: all assays above

C=CCN/C(=N/S(=O)(=O)c1cc(C)c(Cl)cc1SC)N/N=C/c1ccc([N+](=O)[O-])o1
inactive: all assays above

C#CCN/C(=N/S(=O)(=O)c1cc(C)c(Cl)cc1SCC(=O)c1ccccc1)NN
inactive: all assays above

C=CCN/C(=N/S(=O)(=O)c1cc(C(=O)Nc2ccc(Cl)cc2)c(Cl)cc1SC)NN
inactive: all assays above
